Assay results reported in patent publication US4581225A, “Sustained release intranasal formulation and method of use thereof” (Eli Lilly and Company, priority 1985, dated 1986).
Counter-ions that a name gives are not always drawn.

Tests used:
[1] = background statement; cited from earlier work
[2] = test system: catechol-O-methyltransferase; conditions: background statement; cited from earlier work
[3] = dobutamine plasma levels in anesthetized rats after intravenous bolus and intranasal saline solution; type: in vivo; conditions: rat
Procedure: According to the present invention, it has been unexpectedly discovered that a catecholamine can be formulated for nasal administration and upon administration achieve equivalent bioavailability as compared to intravenous administration. The purpose of the following study is to examine the bioavailability of the catecholamine dobutamine when administered intranasally and intravenously.
Six male rats weighing 280 g were anesthetized with sodium pentobarbital (50 mg/kg I.P.). Three rats were dosed intravenously with dobutamine hydrochloride at 2.5 mg/kg. Blood samples were taken at 0.5, 2, 4, 6, 10, 15, 20 and 30 minutes for dobutamine plasma analysis. The three remaining rats received dobutamine at 2.5 mg/kg intranasally in a saline solution. Blood samples from these rats were taken at 1, 5, 10, 20, 30, 60 and 120 minutes.
As is known, the one time intravenous administration of dobutamine hydrochloride at 2.5 mg/kg produced a very high dobutamine blood level (greater than 1000 ng/ml) within 30 seconds after administration. The duration of dobutamine in the blood as a result of this method of administration was brief however, lasting only for a period of approximately 30 minutes. For comparison, 1.456 mg of dobutamine hydrochloride was dissolved in 0.2 ml of saline solution and 0.1 ml of this solution was administered intranasally to a 291 g rat to provide a dose of 2.5 mg/kg. […] The intranasal delivery of dobutamine produced a moderate dobutamine blood level of 100 ng/ml after 20 minutes.
The area under the curve (AUC) was calculated with computer assistance employing the trapezoidal method for each route of administration.

| SMILES | half-life in the body [1] | biotransformation by catechol-O-methyltransferase [2] | concentration at 20 min ([3]; blood, intranasal saline solution 2.5 mg/kg, after 20 minutes, read-out: dobutamine blood level) | concentration at 0.5 min ([3]; blood, intravenous bolus 2.5 mg/kg, within 30 seconds after administration, average of three, read-out: dobutamine blood level) | AUC at 0.5 h ([3]; plasma, IV bolus 2.5 mg/kg, trapezoidal method, sampled 0.5-30 minutes, read-out: Area Under the Curve (AUC) (converted)) | AUC at 2 h ([3]; plasma, intranasal saline solution 2.5 mg/kg, trapezoidal method, sampled 1-120 minutes, read-out: Area Under the Curve (AUC) (converted)) | persistence of effective blood level ([3]; intranasal saline solution 2.5 mg/kg, after two hours) | duration of dobutamine in the blood ([3]; intravenous bolus 2.5 mg/kg) |
| --- | --- | --- | --- | --- | --- | --- | --- | --- |
| CC(CCc1ccc(O)cc1)NCCc1ccc(O)c(O)c1 (racemic) [dobutamine, (+,-) 4-[2-[[3-(p-hydroxyphenyl)-1-methylpropyl]amino]ethyl]pyrocatechol] | 2 min | very rapidly biotransformed |  |  |  |  |  |  |
| CC(CCc1ccc(O)cc1)NCCc1ccc(O)c(O)c1 (centres unmarked) [dobutamine hydrochloride] |  |  | 100 ng/mL | > 1000 ng/mL | 37.1 ng·h/mL | 188 ng·h/mL | effective blood level remained after two hours | approximately 30 minutes |
